# From patent US20080305186A1, “Method and Composition for the Treatment of Cardiac Hypertrophy” (BOARD OF REGENTS, THE UNIVERSITY OF TEXAS SYSTEM, priority 2007, published 2008)
# Tested on: cardiac gene expression
# Experiment: Microarray analysis of cardiac gene expression (GeneChip Mouse Genome 430 2.0)
# Type: in vivo, mice
# Procedure: Microarray Sample Preparation and Analysis. Animal hearts were rapidly removed, and the atria and right ventricles were cut and immediately plunged into TRIzol Reagent (Life Technologies). Total RNA was isolated following the manufacturer's instructions, purified by phenol-chloroform extraction and then ethanol precipitation, and 20 μg further processed for microarray analysis. Briefly, cDNA synthesis, in vitro transcription, and labeling and fragmentation to produce the oligonucleotide probes were performed as instructed by the GeneChip manufacturer (Affymetrix). The probes were first hybridized to a test array (Affymetrix) and then to the GeneChip Mouse Genome 430 2.0 Array, using the GeneChip Hybridization Oven 640. The chips were washed in a GeneChip Fluidics Station 450 (Affymetrix), and the results were visualized with a GeneChip G7 scanner (Affymetrix). RMA normalization, pairwise comparisons, Student's t test and Benjamini and Hochberg correction were subsequently performed using GeneSifter (VizX Labs, Seattle, Wash.) and Spotfire DecisionSite 8.3 (Spotfire, Inc., Somerville, Mass.).
# Effects on Gene Expression Profile. […] One mouse heart was used for each array, and was performed in triplicate, generating a total of 12 arrays. GeneSifter was used to perform RMA normalization, pairwise comparisons of averaged signal intensity values, and Student's t-test with Benjamini and Hochberg correction, and Spotfire was used to perform pairwise comparisons. […] Additionally, genes that were altered between any two N or cardiac hypertrophy samples were removed, as these alterations most likely represented normal variations between mice.
compound,measurement,setting,value
C[C@H]1c2cccc(O)c2C(=O)C2=C(O)[C@]3(O)C(=O)C(C(N)=O)=C(O)[C@@H](N(C)C)[C@@H]3[C@@H](O)[C@@H]21 [doxycycline],FC Tubulointerstitial nephritis antigen-like (Tinagl),"GenBank BC005738, heart, drug + isoproterenol vs isoproterenol-only mice, CH vs normal FC 2.1",−1.8 fold
same,FC Tubulin alpha (Tuba2),"GenBank BC008117, heart, drug + isoproterenol vs isoproterenol-only mice, CH vs normal FC −2.7",4.1 fold
same,FC Intercellular adhesion molecule (Icam1),"GenBank BC008626, vs mice given only isoproterenol",−2.7
same,FC Similar to serine protease inhibitor-2 related sequee 1 (Serpina3m),"GenBank BC011158, vs mice given only isoproterenol",−2.4
same,FC Phosphatidylinositol binding clathrin assembly protein (Picalm),"GenBank BC011470, vs mice given only isoproterenol",−1.5
same,FC Isochorismatase domain containing 1 (Isoc1),"GenBank BC016576, vs mice given only isoproterenol",2.8
same,"FC EGF, latrophilin seven transmembrane domain containing 1 (Eltd1)","GenBank BC017134, vs mice given only isoproterenol",−2.0
same,"FC Ras homolog gene family, member B (RhoB)","GenBank BC018275, vs mice given only isoproterenol",−2.1
same,FC D site albumin promoter binding protein (Dbp),"GenBank BC018323, vs mice given only isoproterenol",10.2
same,FC RAD52 homolog (S. cerevisiae) (Rad52),"GenBank BC019123, vs mice given only isoproterenol",−1.8
same,FC Leucine-rich repeat-containing 3b (Lrrc3b),"GenBank BC019794, vs mice given only isoproterenol",1.9
same,"FC Solute carrier family 45, member 3 (Slc45a3)","GenBank BC024519, vs mice given only isoproterenol",−1.8
same,FC Rho GTPase activating protein 24 (Arhgap24),"GenBank BC025502, vs mice given only isoproterenol",−1.8
same,FC Motile sperm domain containing 2 (Mospd),"GenBank BC026425, vs mice given only isoproterenol",−1.7
same,FC Similar to metallothionein 1 (Mt1),"GenBank BC027262, vs mice given only isoproterenol",−2.7
same,FC Guanine deaminase (Gda),"GenBank BE136057, vs mice given only isoproterenol",−1.7
same,FC EST,"GenBank BE553782, vs mice given only isoproterenol",−1.6
same,FC EST,"GenBank BE630303, vs mice given only isoproterenol",−1.8
same,FC ESTs,"GenBank BE630363, vs mice given only isoproterenol",−3.1
same,FC ESTs,"GenBank BE685667, vs mice given only isoproterenol",−3.2
same,FC EST,"GenBank BE687858, vs mice given only isoproterenol",−1.5
same,FC EST,"GenBank BE852759, vs mice given only isoproterenol",1.7
same,FC Retinoblastoma binding protein 4 (Rbbp4),"GenBank BF011461, vs mice given only isoproterenol",2.1
same,FC Methyl-CpG binding domain protein 1 (Mbd1),"GenBank BF121558, vs mice given only isoproterenol",−1.8
same,FC SET translocation (Set),"GenBank BF134272, vs mice given only isoproterenol",2.0
same,FC Protein tyrosine phosphatase 4a1 (Ptp4a1),"GenBank BF179910, vs mice given only isoproterenol",−1.9
same,"FC Potassium channel, subfamily K, member 3 (Kcnk3)","GenBank BF467278, vs mice given only isoproterenol",3.9
same,FC Smoothelin (Smtn),"GenBank BF578669, vs mice given only isoproterenol",1.5
same,FC EST,"GenBank BF780807, vs mice given only isoproterenol",−1.9
same,FC ESTs,"GenBank BG067678, vs mice given only isoproterenol",2.6
same,FC EST,"GenBank BG068705, vs mice given only isoproterenol",−1.7
same,FC SET domain containing (lysine methyltransferase) 8)Setd8),"GenBank BG069700, vs mice given only isoproterenol",1.9
same,FC Neuronal PAS domain protein 2 (Npas2),"GenBank BG070037, vs mice given only isoproterenol",−2.6
same,"FC Pleckstrin homology domain containing, family G (with RhoGef domain) member 1 (Plekhg1)","GenBank BG073502, vs mice given only isoproterenol",−2.0
same,FC Microtubule-actin crosslinking factor 1 (Macf1),"GenBank BG074706, vs mice given only isoproterenol",2.7
same,FC Insulin-like growth factor 1 (Igf1),"GenBank BG075165, vs mice given only isoproterenol",2.3
same,FC p53 regulated PA26 nuclear protein (Sestrin 1) (Sesn1),"GenBank BG076140, 1st listing, vs mice given only isoproterenol",−2.9
same,FC p53 regulated PA26 nuclear protein (Sestrin 1) (Sesn1),"GenBank BG076140, 2nd listing, vs mice given only isoproterenol",−3.5
same,FC EST,"GenBank BG092512, vs mice given only isoproterenol",−2.9
same,"FC Transforming growth factor, beta receptor II (Tgfbr2)","GenBank BG793483, heart, drug + isoproterenol vs isoproterenol-only mice, CH vs normal FC 2.4",−2.3 fold
same,FC Restin-like 2 (Rsnl2),"GenBank BG916957, vs mice given only isoproterenol",1.9
same,FC mVL30-1 retroelement,"GenBank BI076714, vs mice given only isoproterenol",−2.1
same,FC Methylcrotonoyl-Coenzyme A carboxylase 2 (beta) (Mccc2),"GenBank BI155184, vs mice given only isoproterenol",1.7
same,"FC Transforming, acidic coiled-coil containing protein 2 (Tacc2)","GenBank BI466416, heart, drug + isoproterenol vs isoproterenol-only mice, CH vs normal FC 2.6",−2.5 fold
same,FC PHD finger protein 15 (Phf15),"GenBank BI663145, vs mice given only isoproterenol",−2.1
same,FC Tissue inhibitor of metalloproteinase 4 (Timp4),"GenBank BI788452, heart, drug + isoproterenol vs isoproterenol-only mice, CH vs normal FC 3.2",−3.1 fold
same,FC Zi finger and BTB domain containing 16 (Zbtb16),"GenBank BM115255, heart, drug + isoproterenol vs isoproterenol-only mice, CH vs normal FC 7.5",−1.6 fold
same,"FC GTL2, imprinted maternally expressed untranslated mRNA (Gtl2)","GenBank BM119226, vs mice given only isoproterenol",1.7
same,FC Ectodermal-neural cortex 1 (E1),"GenBank BM120053, 1st listing, vs mice given only isoproterenol",−2.0
same,FC Ectodermal-neural cortex 1 (E1),"GenBank BM120053, 2nd listing, vs mice given only isoproterenol",−1.9
same,FC Pellino 2(peli2),"GenBank BM121149, vs mice given only isoproterenol",−1.9
same,FC REST corepressor 1 (Rcor1),"GenBank BM194994, vs mice given only isoproterenol",3.3
same,FC EST,"GenBank BM219553, vs mice given only isoproterenol",−2.6
same,FC Phospholipase D1 (Pld1),"GenBank BM228590, 1st listing, vs mice given only isoproterenol",−2.0
same,FC Phospholipase D1 (Pld1),"GenBank BM228590, 2nd listing, vs mice given only isoproterenol",−1.6
same,FC SET translocation (Set),"GenBank BM229104, vs mice given only isoproterenol",2.0
same,FC p53 regulated PA26 nuclear protein (Sestrin 1) (Sesn1),"GenBank BM237933, vs mice given only isoproterenol",−2.4
same,FC Macrophage activation 2 (Mpa21),"GenBank BM241485, vs mice given only isoproterenol",−3.6
same,FC Prohibitin (Phb),"GenBank BM243379, vs mice given only isoproterenol",−2.1
same,FC Serine iorporator 3 (Seri3),"GenBank BM244064, vs mice given only isoproterenol",−1.8
